{"source": "patent EP0559845B1", "about": "“Use of compounds in preventing endotoxin shock” (priority 1991, dated 1992)", "key": {"sheep [1]": {"test_system": "sheep", "assay": "Toxicity of lipid X in sheep", "format": "in vivo", "details": "40 sheep injected", "method": "(§1) Mixed breed sheep weighing 30-70 kg were obtained from the University of Wisconsin Experimental Farms. Sheep were prepared as follows: at least 24 hours before each experiment, catheters were percutaneously placed in the pulmonary artery. Any other catheterizations that were required for infusion were done at this time. All studies were performed on awake, unrestrained sheep placed in portable stanchions with food and water ad libitum. Electronically calculated pulmonary artery pressures as well as heart rates were recorded at various intervals on a polygraph. To ensure a stable baseline prior to the injection of test compounds, approximately 1 hour of baseline measurements were recorded.\nTo test for the toxicity of lipid X in mice, C57BL/10 mice were challenged with 750, 2000 or 5000 µg of lipid X intraperitoneally (12 mice) or with 750, 1500 or 3000 µg intravenously (7 mice). […] Consequently, lipid X appeared to be nontoxic in mice, as in sheep.\nAbout 30 sheep were examined by Burhop with regard to lipid X toxicity."}, "sheep [2]": {"test_system": "sheep", "assay": "Protection of sheep against the lethal effects of intravenous lipopolysaccharide", "format": "in vivo", "method": "as §1\nIn view of the partial protection afforded by lipid X against LPS-induced lethality in mice, the possibility of such protection was also examined in sheep. The sheep system has the important advantage of permitting the administration of much larger doses of lipid X relative to LPS. It is the ratio of lipid X to endotoxin that is critical for survival. […] It is evident that a 5-10 fold excess of lipid X (on a weight basis) over LPS is required to ensure survival. (Because of the inherent LPS resistance of mice, their small body volume, and the limited solubility of lipid X in water, it is impossible to achieve 5-10 fold excess of lipid X relative to LPS in the mouse system.)"}, "sheep [3]": {"test_system": "sheep", "details": "40-1000 µg/kg; reported in the literature; cited from earlier work"}, "[4]": {"test_system": "LPS-induced GTPase activity in membranes isolated from RAW 264.7 cells", "assay": "GTPase assay: effect of compounds on LPS-stimulated GTPase activity in macrophage membranes (release of 32Pi from γ-32P-GTP)", "format": "biochemical", "description": "(§2) We sought to directly evaluate the influence of LPS on possible G-protein function by examining agonist-enhanced GTPase activity, which is a hallmark of G-protein action. Moreover, because macrophages are one of the key cell types in the release of toxic mediators following an LPS challenge, we first assessed the capacity of LPS to influence GTPase activity in membranes isolated from RAW 264.7 cells, which is a highly LPS-responsive macrophage cell line. In these studies, GTPase activity was measured using a standard assay. The activity was determined using 2 µM γ-^32P-GTP in the presence of 0.1 mM ATP and 0.2 mM of the non-hydrolyzable ATP analog, AMPPNP, in order to minimize nonspecific nucleotidase activity in the membrane preparations.\nThe reaction is initiated by the addition of the γ-^32P-GTP and the mixture incubated at 30-37°C for 15 to 30 minutes. The reaction is terminated by the addition of 500µl of 5% trichloroacetic acid and 500µl of 0.1gm/ml acid-activated charcoal in 5% trichloroacetic acid. The samples are centrifuged at 14,000xg for 10 minutes, and a 550µl aliquot of the supernatant is removed for scintillation counting. The supernatant will contain the released ^32Pi. The extent of GTPase inhibition is measured by the decrease in the amount of ^32Pi released from γ-^32P-GTP. Appropriate controls include mixtures with one of the following omitted: (i) test compound, (ii) endotoxin, and (iii) ATP, ADP or AMPPNP.\nThe membranes are resuspended in 20 mM HEPES (pH 7.4), 1 mM dithiothreitol, 1 mM EDTA and 10 µg leupeptin/ml. Aliquots are stored at -70°C until assayed."}, "[5]": {"test_system": "FCS-enhanced GTPase activity", "assay": "Inhibition of FCS-enhanced (non-LPS-stimulated) GTPase activity in macrophage membranes", "format": "biochemical", "details": "3 mg/ml lipid X; 10% FCS", "method": "With respect to non-LPS-stimulated GTPase activity in this macrophage system, we observed that 10% FCS (<0.1 ng endotoxin/ml serum by the Limulus amebocyte lysate method) induced a large degree of GTPase activation, whereas 3 mg/ml lipid X inhibited the FCS-enhanced GTPase activity by ∼ 50%."}, "[6]": {"test_system": "GTPase activity in membranes isolated from a macrophage (RAW 264.7) cell line", "assay": "GTPase assay, basal activity and single agonists", "format": "biochemical", "description": "as §2, with “preparations. In the preferred practice of the present invention, the ability of a candidate compound to inhibit LPS-induced GTPase is assessed by measuring the release of ^32Pi from γ-^32P-GTP.” for “preparations.”\nWe first determined the optimal LPS concentration for GTPase stimulation. In all experiments, the LPS dose response curve was quite steep, and with the highest activity occurring around 200-300 µg LPS/ml.\nUnder these conditions, GTPase activation was evident at 100 µg LPS/ml (roughly 6 µM assuming an average MW ∼ 17,000 kDa), and the maximal effect was seen by 300 µg/ml LPS. (2) To show adenosine mucleotide synergism with LPS-stimulated GTPase activity, either 10µM ATP or 30µM ADP replace the 0.1 mM ATP and 0.2 mM AMPPNP of the standard assay described by Cassel et al. and Neer et al.\nBecause the above inhibitor studies indicated a maximum LPS-stimulated GTPase activity in the presence of ATP and ATP analogs, we investigated this interaction by measuring the ATP-dependence of the GTPase activity in macrophage membranes in the presence and absence of an optimal dose of LPS. […] This stimulation by ATP may be due to the action of purinergic receptors, i.e., the adenosine and ATP receptors which are well-characterized to be coupled to various G-proteins.\nTo assess whether the LPS/ATP-enhanced GTPase is a \"low Km\" form, which would be expected for a variety of large and small MW G-proteins, as well as for various GAP and ARF-like proteins, as opposed to a \"high Km\" form, such as a phosphatase, we assayed the GTPase activity using 0.2 and 50 µM GTP essentially as described previously. […] The LPS and ATP stimulated a low Km GTPase activity by ∼30% and 70%, respectively, when added individually. This stimulation of low Km activity was slightly greater than that estimated using the standard assay conditions. […] The LPS stimulation of GTPase activity is enhanced by adenine nucleotides."}}, "note": "Entries after “also recorded” stand apart in the source; their conditions may differ.", "data": [{"smiles": "CCCCCCCCCCC[C@@H](O)CC(=O)N[C@H]1[C@@H](OP(=O)(O)O)O[C@H](CO)[C@@H](O)[C@@H]1OC(=O)C[C@H](O)CCCCCCCCCCC", "note": "[lipid X]", "values": [{"measurement": "adverse complications of lipid X administration", "setting": "sheep [1]", "value": "no serious adverse complications"}, {"measurement": "survival of subsequent LPS challenge", "setting": "sheep [2]; 100-200 µg/kg of lipid X during the pretreatment period", "value": "survived"}, {"measurement": "Survivors", "setting": "sheep [2]; Lipid X 50 µg/kg 1 hour prior to endotoxin, Lipopolysaccharide 20 µg/kg", "value": "1/2"}, {"measurement": "Survivors", "setting": "sheep [2]; Lipid X 100 µg/kg 15 min. prior to endotoxin, Lipopolysaccharide 10 µg/kg", "value": "3/3"}, {"measurement": "Survivors", "setting": "sheep [2]; Lipid X 100 µg/kg 1 hour prior to endotoxin, Lipopolysaccharide 20 µg/kg", "value": "4/4"}, {"measurement": "Survivors", "setting": "sheep [2]; Lipid X 200 µg/kg 1 hour prior to endotoxin, Lipopolysaccharide 20 µg/kg", "value": "3/3"}, {"measurement": "excess of lipid X over LPS required to ensure survival", "setting": "sheep [2]; in vivo", "value": "5-10 fold excess (on a weight basis"}, {"measurement": "effect on pulmonary hypertension or fever induced by LPS", "setting": "sheep [2]; pretreatment with lipid X", "value": "does not completely prevent"}, {"measurement": "effect on serious clinical symptoms (shortness of breath, weakness, diarrhea)", "setting": "sheep [2]; pretreatment with lipid X", "value": "alleviates some of the serious clinical symptoms"}, {"measurement": "illness after lipid X by itself", "setting": "sheep [3]", "value": "does not create marked illness or fever"}, {"measurement": "inhibition of LPS-stimulated GTPase activity", "setting": "[4]", "value": "dose-dependent inhibition; also recorded: dose-dependently inhibiting"}, {"measurement": "half-maximal inhibition of LPS-enhanced GTPase activity", "setting": "[4]; LPS 300 µg/ml or 1 mg/ml", "value": "23 to 1 molar ratio of lipid X to LPS"}, {"measurement": "inhibition of FCS-enhanced GTPase activity", "setting": "[5]", "value": "~50", "unit": "%"}, {"measurement": "effect on basal GTPase activity", "setting": "[6]", "value": "slightly reducing"}]}]}
